# Laboratory results taken from paper PMC8720286 (Chemical biology & drug design, 2020).
# Columns and labels:
# Mtb H37Rv = assay: MIC determination by microplate AlamarBlue assay; conditions: for anti-TB activity in words: susceptible strain of Mtb, SAR discussion; for fold more potent against M.tb than counterparts 3 - 5 with no carbon spacer: 9 vs 3, 10 vs 4, 11 vs 5; for Mtb MIC H37Rv/DS: Table 2, H37Rv drug-sensitive
# Mtb V4207/DS = assay: microbe, parasite or virus in culture; format: cell-based; conditions: Mycobacterium tuberculosis, read-out: Mtb MIC V4207/DS
# Mtb KZN494/MDR = assay: microbe, parasite or virus in culture; format: cell-based, Mycobacterium tuberculosis; conditions: relative to H37Rv MIC
# in vitro [1] = format: cell-based; conditions: African green monkey
# Vero cells = assay: in vitro; format: cell-based; conditions: IC50 (Vero)/MIC
# in vitro [2] = format: in vitro ADME; conditions: human, plasma
# in vitro [3] = format: in vitro ADME; conditions: mouse, plasma
# CYP1A2 = molecular target: T1, CYP1A2 (Homo sapiens, UniProt P05177); assay: CYP inhibition, CYP1A2; format: in vitro ADME
# T1 sequence (P05177 1-516): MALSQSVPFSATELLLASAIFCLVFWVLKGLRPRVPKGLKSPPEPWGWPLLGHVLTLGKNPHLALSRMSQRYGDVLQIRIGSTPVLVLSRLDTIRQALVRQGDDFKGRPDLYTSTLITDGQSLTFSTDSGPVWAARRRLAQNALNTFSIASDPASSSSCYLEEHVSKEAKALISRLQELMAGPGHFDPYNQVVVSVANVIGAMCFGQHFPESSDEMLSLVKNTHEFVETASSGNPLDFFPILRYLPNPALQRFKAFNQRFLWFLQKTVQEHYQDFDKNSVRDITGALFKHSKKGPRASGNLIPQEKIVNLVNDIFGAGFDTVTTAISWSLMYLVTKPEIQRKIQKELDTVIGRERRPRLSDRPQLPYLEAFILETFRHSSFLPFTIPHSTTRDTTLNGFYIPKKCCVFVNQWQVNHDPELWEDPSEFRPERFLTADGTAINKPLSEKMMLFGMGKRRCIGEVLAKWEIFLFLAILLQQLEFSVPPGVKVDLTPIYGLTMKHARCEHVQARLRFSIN
# CYP2C9 = CYP2C9 (Homo sapiens, UniProt P11712); assay: CYP inhibition, CYP2C9; format: in vitro ADME
# CYP2C19 = CYP2C19 (Homo sapiens, UniProt P33261); assay: CYP inhibition, CYP2C19; format: in vitro ADME
# CYP2D6 = CYP2D6 (Homo sapiens, UniProt P10635); assay: CYP inhibition, CYP2D6; format: in vitro ADME
# CYP3A4 = CYP3A4 (Homo sapiens, UniProt P08684); assay: CYP inhibition, CYP3A4; format: in vitro ADME; conditions: probe midazolam
# hERG = hERG (Homo sapiens, UniProt Q12809); assay: hERG channel inhibition, manual patch-clamp; format: cell-based; conditions: human
# [4] = molecular target: human Ether-à-go-go related gene (hERG) channel (Homo sapiens, UniProt Q12809); assay: hERG channel inhibition, manual patch-clamp; format: cell-based
# in vitro [5] = format: in vitro ADME
# in vitro [6] = format: in vitro ADME; conditions: human, microsomes, Liver microsomes, % remaining after 1 hr (human)
# in vitro [7] = format: in vitro ADME; conditions: mouse, microsomes, Liver microsomes, % remaining after 1 hr (mouse)
# clinical isolates of Mtb = format: cell-based, Mycobacterium tuberculosis; conditions: for MIC range against MDR and XDR strains of TB: range over both compounds and strains; for fold drop in activity against the tested clinical isolates of Mtb: relative to H37Rv MIC
# CYP2D6, sequence (P10635 whole entry): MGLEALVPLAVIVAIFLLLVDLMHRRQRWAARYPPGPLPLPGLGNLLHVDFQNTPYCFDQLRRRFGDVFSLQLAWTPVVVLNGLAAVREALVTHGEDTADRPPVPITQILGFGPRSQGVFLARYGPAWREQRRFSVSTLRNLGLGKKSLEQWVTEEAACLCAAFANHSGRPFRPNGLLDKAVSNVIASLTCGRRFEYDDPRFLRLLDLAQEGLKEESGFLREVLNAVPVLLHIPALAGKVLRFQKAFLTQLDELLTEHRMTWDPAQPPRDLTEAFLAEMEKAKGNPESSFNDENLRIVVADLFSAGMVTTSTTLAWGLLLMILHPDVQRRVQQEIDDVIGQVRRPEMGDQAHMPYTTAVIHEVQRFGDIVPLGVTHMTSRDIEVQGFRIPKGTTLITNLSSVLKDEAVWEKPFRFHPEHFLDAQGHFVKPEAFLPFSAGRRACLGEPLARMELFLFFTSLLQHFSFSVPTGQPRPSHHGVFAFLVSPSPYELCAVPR
# CYP2C19, sequence (P33261 whole entry): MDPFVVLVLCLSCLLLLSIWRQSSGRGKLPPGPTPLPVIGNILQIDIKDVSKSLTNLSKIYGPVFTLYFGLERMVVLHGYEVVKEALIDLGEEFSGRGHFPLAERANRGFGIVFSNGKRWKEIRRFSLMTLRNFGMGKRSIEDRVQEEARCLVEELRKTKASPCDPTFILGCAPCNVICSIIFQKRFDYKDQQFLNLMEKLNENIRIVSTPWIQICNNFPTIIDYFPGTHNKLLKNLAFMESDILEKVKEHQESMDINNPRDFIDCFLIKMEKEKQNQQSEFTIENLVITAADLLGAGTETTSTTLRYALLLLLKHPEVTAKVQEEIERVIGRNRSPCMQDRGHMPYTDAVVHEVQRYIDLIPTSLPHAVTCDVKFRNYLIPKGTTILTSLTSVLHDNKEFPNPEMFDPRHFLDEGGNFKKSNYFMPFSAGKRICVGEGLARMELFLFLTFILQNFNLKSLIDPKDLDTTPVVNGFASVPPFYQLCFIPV
# CYP2C9, sequence (P11712 whole entry): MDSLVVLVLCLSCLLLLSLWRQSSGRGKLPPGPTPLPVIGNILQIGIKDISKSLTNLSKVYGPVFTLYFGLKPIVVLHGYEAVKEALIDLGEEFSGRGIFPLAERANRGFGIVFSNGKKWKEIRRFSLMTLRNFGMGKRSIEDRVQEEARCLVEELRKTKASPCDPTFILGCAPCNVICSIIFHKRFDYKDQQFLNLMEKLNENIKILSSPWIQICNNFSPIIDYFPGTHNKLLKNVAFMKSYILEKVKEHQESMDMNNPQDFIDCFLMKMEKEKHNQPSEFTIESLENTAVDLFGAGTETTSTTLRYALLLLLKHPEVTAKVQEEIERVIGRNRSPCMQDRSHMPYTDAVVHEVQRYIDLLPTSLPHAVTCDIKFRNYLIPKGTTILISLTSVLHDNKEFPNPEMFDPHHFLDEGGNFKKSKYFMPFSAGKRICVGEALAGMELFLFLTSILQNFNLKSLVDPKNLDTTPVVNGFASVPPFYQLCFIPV
# CYP3A4, sequence (P08684 whole entry): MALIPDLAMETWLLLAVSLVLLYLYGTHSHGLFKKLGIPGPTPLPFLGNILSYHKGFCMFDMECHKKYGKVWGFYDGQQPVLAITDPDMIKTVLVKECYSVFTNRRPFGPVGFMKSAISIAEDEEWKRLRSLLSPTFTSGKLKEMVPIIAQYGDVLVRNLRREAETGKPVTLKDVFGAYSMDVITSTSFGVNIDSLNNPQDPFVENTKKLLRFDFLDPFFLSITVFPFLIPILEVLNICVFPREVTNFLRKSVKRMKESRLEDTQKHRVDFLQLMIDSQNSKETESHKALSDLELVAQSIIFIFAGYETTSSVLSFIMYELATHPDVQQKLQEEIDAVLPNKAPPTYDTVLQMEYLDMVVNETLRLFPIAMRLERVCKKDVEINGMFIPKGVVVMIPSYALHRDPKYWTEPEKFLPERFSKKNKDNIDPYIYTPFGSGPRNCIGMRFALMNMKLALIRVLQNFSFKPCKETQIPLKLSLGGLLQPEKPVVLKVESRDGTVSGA
# human Ether-à-go-go related gene (hERG) channel, sequence (Q12809 whole entry): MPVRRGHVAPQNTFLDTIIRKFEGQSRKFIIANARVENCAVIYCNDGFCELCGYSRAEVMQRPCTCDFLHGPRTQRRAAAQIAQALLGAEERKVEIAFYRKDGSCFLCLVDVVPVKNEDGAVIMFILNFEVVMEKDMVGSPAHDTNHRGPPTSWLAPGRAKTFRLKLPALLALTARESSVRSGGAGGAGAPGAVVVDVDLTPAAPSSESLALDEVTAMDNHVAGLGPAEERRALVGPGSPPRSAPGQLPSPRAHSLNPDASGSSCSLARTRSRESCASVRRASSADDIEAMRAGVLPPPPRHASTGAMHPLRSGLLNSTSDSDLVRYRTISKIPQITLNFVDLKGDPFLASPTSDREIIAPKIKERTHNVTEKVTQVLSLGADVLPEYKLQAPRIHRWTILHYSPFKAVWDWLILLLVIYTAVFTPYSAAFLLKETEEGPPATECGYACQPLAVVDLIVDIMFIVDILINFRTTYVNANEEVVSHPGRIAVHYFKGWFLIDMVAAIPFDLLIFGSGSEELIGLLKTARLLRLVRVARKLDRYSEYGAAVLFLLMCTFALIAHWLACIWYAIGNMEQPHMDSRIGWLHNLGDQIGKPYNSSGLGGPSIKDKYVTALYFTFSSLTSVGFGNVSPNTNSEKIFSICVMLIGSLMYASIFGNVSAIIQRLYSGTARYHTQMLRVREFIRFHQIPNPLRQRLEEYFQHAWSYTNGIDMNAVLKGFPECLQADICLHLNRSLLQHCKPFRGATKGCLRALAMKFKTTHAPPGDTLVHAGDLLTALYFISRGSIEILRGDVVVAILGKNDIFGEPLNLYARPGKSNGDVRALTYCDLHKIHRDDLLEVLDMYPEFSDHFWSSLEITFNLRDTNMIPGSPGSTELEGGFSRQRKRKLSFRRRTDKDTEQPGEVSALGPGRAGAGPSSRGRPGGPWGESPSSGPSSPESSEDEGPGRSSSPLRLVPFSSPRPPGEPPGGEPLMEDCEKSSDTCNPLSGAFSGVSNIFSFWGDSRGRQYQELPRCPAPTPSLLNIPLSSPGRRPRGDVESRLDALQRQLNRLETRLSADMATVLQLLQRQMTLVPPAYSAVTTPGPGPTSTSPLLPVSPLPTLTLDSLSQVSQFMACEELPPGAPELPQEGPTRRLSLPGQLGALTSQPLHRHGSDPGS
# hERG, sequence (Q12809 whole entry): as above
smiles,measurement,setting,value
"O=C(NCCCC1CCCCC1)c1cn2ccc(Cl)cc2n1 [Compound 19, 7-chloro-N-(3-cyclohexylpropyl)imidazo[1,2-a]pyridine-2-carboxamide]",anti-TB activity in words,Mtb H37Rv,less active
"Cc1ccc2nc(C)c(C(=O)NCC3CCCCCCC3)n2c1 [Compound 11, N-(cyclooctylmethyl)-2,6-dimethylimidazo[1,2-a]pyridine-3-carboxamide]",fold more potent against M.tb than counterparts 3 - 5 with no carbon spacer,Mtb H37Rv; ratio of MIC,133 fold
"Cc1nc2ccc(Cl)cn2c1C(=O)NCCCC1CCCCC1 [Compound 16, 6-chloro-N-(3-cyclohexylpropyl)-2-methylimidazo[1,2-a]pyridine-3-carboxamide]",MIC,Mtb V4207/DS,0.37 µM
same,fold increase in activity against MDR Mtb strain KZN494,Mtb KZN494/MDR,2 fold
same,IC50 at 72 h,in vitro [1],≥ 192 µM
same,"SI, Selectivity index = IC50 (Vero)/MIC",Vero cells,≥1024
same,fraction unbound,in vitro [2],0.0011
same,fraction unbound,in vitro [3],0.0036
same,inhibition at 10 µM,CYP1A2,26.3%
same,inhibition at 10 µM,CYP2C9,32.2%
same,inhibition at 10 µM,CYP2C19,45.2%
same,inhibition at 10 µM,CYP2D6,16.4%
same,inhibition at 10 µM,CYP3A4,52.2%
same,inhibition at 10 µM,hERG,29.1%
same,IC50,[4],> 10 µM
same,% degraded after 2 hours incubation with human hepatocyte,"in vitro [5]; 2 h, 1 μM",over 95%
same,"remaining at 2 h, 1 μM","in vitro [5]; human, hepatocytes",0.19%
same,"remaining at 1 h, 1 μM",in vitro [6],~1.5%
same,"remaining at 1 h, 1 μM",in vitro [7],~0.15%
same,MIC range against MDR and XDR strains of TB,clinical isolates of Mtb,0.05 to 1.5 µM
same,fold drop in activity against the tested clinical isolates of Mtb,clinical isolates of Mtb,up to 8 fold
same,fold more active than isoniazid against H37Rv,Mtb H37Rv; ratio of MIC,1.5 - 3 fold
same,Mtb MIC H37Rv/DS,Mtb H37Rv,0.19 µM
same,fold drop in activity relative to compound 15,Mtb H37Rv; ratio of MIC,approximately 2 fold
"Cc1ccc2nc(C)c(C(=O)NCC3CCCCCC3)n2c1 [Compound 10, N-(cycloheptylmethyl)-2,6-dimethylimidazo[1,2-a]pyridine-3-carboxamide]",fold more potent against M.tb than counterparts 3 - 5 with no carbon spacer,Mtb H37Rv; ratio of MIC,133 fold
"O=C(NCCCC1CCCCC1)c1c(-c2ccccc2)nc2cc(Cl)ccn12 [Compound 17, 7-chloro-N-(3-cyclohexylpropyl)-2-phenylimidazo[1,2-a]pyridine-3-carboxamide]",anti-TB activity in words,Mtb H37Rv,complete loss in activity
"Cc1ccc2nc(C)c(C(=O)NCCCC3CCCCC3)n2c1 [Compound 15, N-(3-cyclohexylpropyl)-2,6-dimethylimidazo[1,2-a]pyridine-3-carboxamide]",MIC,Mtb V4207/DS,0.1 µM
same,fold increase in activity against MDR Mtb strain KZN494,Mtb KZN494/MDR,2 fold
same,IC50 at 72 h,in vitro [1],102 µM
same,"SI, Selectivity index = IC50 (Vero)/MIC",Vero cells,1024
same,MIC range against MDR and XDR strains of TB,clinical isolates of Mtb,0.05 to 1.5 µM
same,fold drop in activity against the tested clinical isolates of Mtb,clinical isolates of Mtb,up to 2 fold
same,fold more active than isoniazid against H37Rv,Mtb H37Rv; ratio of MIC,1.5 - 3 fold
same,Mtb MIC H37Rv/DS,Mtb H37Rv,0.10 µM
same,fold more active than compounds 9 and 13,Mtb H37Rv; ratio of MIC,4 fold
"O=C(NC1CCCCCCC1)c1cn2ccc(Cl)cc2n1 [Compound 18, 7-chloro-N-cyclooctylimidazo[1,2-a]pyridine-2-carboxamide]",anti-TB activity in words,Mtb H37Rv,less active
"Cc1ccc2nc(C)c(C(=O)NCC3CCCCC3)n2c1 [Compound 9, N-(cyclohexylmethyl)-2,6-dimethylimidazo[1,2-a]pyridine-3-carboxamide]",fold more potent against M.tb than counterparts 3 - 5 with no carbon spacer,Mtb H37Rv; ratio of MIC,267 fold
"Cc1ccc2nc(C)c(C(=O)NCC34CC5CC(CC(C5)C3)C4)n2c1 [Compound 12, N-(adamantan-1-ylmethyl)-2,6-dimethylimidazo[1,2-a]pyridine-3-carboxamide]",anti-TB activity in words,Mtb H37Rv,poor anti-TB activity
